The text below walks through data of patent US9457033B2, “Steroid alkaloids and uses thereof as antimicrobial agents against electron transport-deficient microbes and as potentiators for antimicrobial agents against pathogenic bacteria” (priority 2011, dated 2016).

This assay has as its system S. aureus ATCC 29213. The assay can be described thus: Time-kill experiments, aminoglycoside alone or with tomatidine (FIGS. 8-10).

For the compound `C[C@H]1CC[C@]2(NC1)O[C@H]1C[C@H]3[C@@H]4CC[C@H]5C[C@@H](O)CC[C@]5(C)[C@H]4CC[C@]3(C)[C@H]1[C@@H]2C` [Tomatidine, tomatidine], the “emergence of resistant CFU” value (combination of tomatidine (8 μg/ml) and gentamicin, FIG. 10) is reported as “significantly reduced the emergence”. The “number of CFU recovered” value (cultures exposed to gentamicin 0.5 to 4 μg/ml for 24 h, with 8 μg/ml tomatidine, FIG. 10) is on record as “significantly decrease”. Further, for the setting “tomatidine at 8 μg/ml with aminoglycoside 1 μg/ml, 24 h, FIG. 9”, the “regrowth of bacteria exposed to gentamicin or tobramycin” value is listed as “markedly reduced the regrowth”.
